Assay results published in publication PMC12645998, “Optimization of VE607 to generate analogs with improved neutralization activities against SARS-CoV-2 variants” (Journal of Virology, 2025).

Assays:
[1] = tested on: SARS CoV-2 D614G Spike pseudovirus; assay type: cell-based
[2] = biological target: SARS-CoV-2 spike HPM7 (Severe acute respiratory syndrome coronavirus 2, UniProt P0DTC2, A892P/A899P/A942P/F817P/K986P/R682G/R683S/R685S/T883C/V705C/V987P)

Row | SMILES | IC50 [1] | Particles in closed conformation (3 RBD down) [2] | Particles in open conformation (1 RBD up) [2]
1 | CN1CCN(C[C@@H](O)COc2cc(Br)cc(OC[C@H](O)CN3CCN(C)CC3)c2)CC1 [Compound 30] | 1310 nM |  | 
2 | CN(C)C[C@@H](O)COc1cc(Br)cc(OC[C@H](O)CN(C)C)c1 [Compound 27] | 780 nM | 16.9% | 68.0%
3 | O[C@@H](COc1cccc(OC[C@H](O)CN2CCCCC2)c1)CN1CCCCC1 [(R,R)-VE607, reference compound] | 660 nM |  | 
4 | CCN(C)C[C@@H](O)COc1cc(Br)cc(OC[C@H](O)CN(C)CC)c1 [Compound 33] | 1150 nM |  | 
